pIC50: −log10 of the molar value.
The compounds below were run on p-ERK in NCI-H441 cells (KRAS G12V mutation) (assay: Cell p-ERK assay (HTRF) in NCI-H441 cells). Settings: Homo sapiens, NCI-H441, 3 h, NCI-H441 cells, 3 h compound incubation, HTRF p-ERK T202/Y204; read-out: H441 p-ERK IC50.
Format: cell-based, human
Protocol: AsPC-1 cells were purchased from ATCC, Cat. No. CRL-1682: NCI-H441 cells were purchased from ATCC, Cat. No. HTB-174: RPMI-1640 medium was purchased from Gibco, Cat. No. I1875-093: FBS was purchased from Gibco, Cat. No. 10099-141C: penicillin/streptomycin double-antibiotic solution (PS) was purchased from Gibco, Cat. No. 15140-122: trypsin (containing EDTA) was purchased from Gibco, Cat. No. 25200-072; DMSO was purchased from VWRAMRESCO, Cat. No. 0231-500ML; 96-well cell culture plates were purchased from Corning, Cat. No. 3599: white-bottomed, opaque 96-well plates were purchased from Cisbio, Cat. No. 66PL96025; Advance ERK phospho-T202/Y204 kit was purchased from Cisbio, Cat. No. 64AERPEH; cell counter was purchased from CHEMOMETEC, model: NC-200; microplate reader was purchased from PerkinElmer, model: EnVision.
AsPC-1, a human pancreatic cancer cell strain endogenously containing a KRAS^G12D mutation, was cultured in a complete medium containing RPMI-1640+10% FBS+1% PS. NCI-H441, a human non-small cell lung cancer cell strain endogenously containing a KRAS^G12V mutation, was cultured in a complete medium containing RPMI-1640+10% FBS+1% PS.
The cells were digested with trypsin (containing EDTA), collected in their corresponding complete media, and counted. The density of the cell suspensions was adjusted with their corresponding complete media, and 10000 AsPC-1 cells or 20000 NCI-H441 cells per well were seeded into a 96-well cell culture plate, with the volume of the medium in each well being 80 μL.
The cell culture plate was incubated in an incubator at 37° C. with 5% CO2 overnight. A series of 3.16-fold gradient dilutions of a 1000- compound stock solution were prepared with DMSO, and then diluted 200-fold with the complete medium described above to give 5′ compound stock solutions. On the day after cell seeding, 20 μL of the 5× compound stock solution was added to each cell culture well. As a result, the final concentration of the compound in the cell culture well became 1×, and the DMSO content in the well was 0.1%. In addition to the compound-treated wells described above, cell-containing DMSO control wells were also set. A complete medium containing 0.5% DMSO was added at 20 μL/well. After the mixture was well mixed, the culture plate was incubated in the incubator at 37° C. with 5% CO2 for another 3 h. The medium was then removed from the culture wells, and 50 μL of cell lysis buffer (from Advance ERK phospho-T202,Y204 kit) was added to each well. The mixture was well mixed and incubated for 30 min. Then, 16 μL of the mixture was transferred to a white-bottomed, opaque 96-well assay plate, and separately, 16 μL of cell lysis buffer was added to additional wells (serving as blank wells) in the assay plate. After the transfer was completed, 4 μL of p-ERK HTRF antibody mixture (from Advance ERK phospho-T202/Y204 kit) was added to each well of the assay plate, followed by a 4-hour incubation. The HTRF signal values (RLU) were then measured using a microplate reader, and the inhibition rate of the compound against p-ERK levels was calculated as follows: IR (%)=(RLUDMSO−RLUcompound)/(RLUDMSO−RLUblank)×100%, where RLUDMSO is the average HTRF signal value from the DMSO control well samples, RLUblank is the average HTRF signal value from the blank well samples, and RLUcompound is the HTRF signal value from the compound-treated well samples. Using an XLfit software, the IR (%) values were plotted against the logarithm of the compound concentrations, and the dose-response curves were fitted using the four-parameter method to calculate the IC50 values.
In the case of `CCn1c(-c2cc(C#CCN3CCCOCC3)cnc2[C@H](C)OC)c2c3cc(ccc31)-c1csc(n1)C[C@H](NC(=O)CC(C)(C)C)C(=O)N1CCC[C@H](N1)C(=O)OCC(C)(C)C2` (atropisomer, axis not shown; (Ra)) [Compound Z798, N-((6^3S,4S,Z)—(Ra)-1^2-(5-(3-(1,4-oxazepan-4-yl)propyn-1-yl)-2-((S)-1-methoxyethyl)pyridin-3-yl)-1^1ethyl-10,10-dimethyl-5,7-dioxo-6^1,6^2,6^3,6^4,6^5,6^6-hexahydro-1^1H-8-oxa-2(4,2)-thiazola-1(5,3)-indola-6(1,3)-pyridazinacycloundecaphane-4-yl)-3,3-dimethylbutanamide], the pIC50 was 8.41.
With `CCn1c(-c2cc(C#CCN3CCN(C(C)=O)CC3)cnc2[C@H](C)OC)c2c3cc(ccc31)-c1csc(n1)C[C@H](Nc1nnc3cc(C)ccn13)C(=O)N1CCC[C@H](N1)C(=O)OCC(C)(C)C2` (atropisomer, axis not shown; (Ra)) [Compound Z981] the pIC50 was 8.66.
Compound `CCn1c(-c2cc(C#CCN3CCN(C)S(=O)(=O)CC3)cnc2[C@H](C)OC)c2c3cc(ccc31)-c1csc(n1)C[C@H](Nc1nnc3cc(C)ccn13)C(=O)N1CCC[C@H](N1)C(=O)OCC(C)(C)C2` (atropisomer, axis not shown; (Ra)) [Compound Z1027, (6^3S,4S,Z)-1^1-ethyl-1^2-(Ra)-(2-((S)-1-methoxyethyl)-5-(3-(2-methyl-1,1-dioxido-1,2,5-thiadiazepan-5-yl)prop-1-yn-1-yl)pyridin-3-yl)-10,10-dimethyl-4-((7-methyl-[1,2,4]triazolo[4,3-a]pyridin-3-yl)amino)-6^1,6^2,6^3,6^4,6^5,6^6-hexahydro-1^1H-8-oxa-2(4,2)-thiazola-1(5,3)-indola-6(1,3)-pyridazinacycloundecaphane-5,7-dione] has a pIC50 of 8.81.
`CCn1c(-c2cc(N3CCN(CCS(C)(=O)=O)CC3)cnc2[C@H](C)OC)c2c3cc(ccc31)-c1csc(n1)C[C@H](NC(=O)[C@H]1[C@H](C)[C@@H]1C)C(=O)N1CCC[C@H](N1)C(=O)OCC1(CC1)C2` (atropisomer, axis not shown; (Sa)) [Compound Z377, (1r,2R,3S)—N-((3′S,4′S,Z)-1′-ethyl-(Sa)-2′-(2-((S)-1-methoxyethyl)-5-(4-(2-(methylsulfonyl)ethyl)piperazin-1-yl)pyridin-3-yl)-5′,7′-dioxospiro[cyclopropane-1,10′-8-oxa-2(4,2)-thiazola-1(5,3)-indola-6(1,3)-pyridazinacycloundecaphan]-4′-yl)-2,3-dimethylcyclopropane-1-carboxamide] showed a pIC50 of 7.06.
Work on `CCn1c(-c2cc(C#CCN3CCCOCC3)cnc2[C@H](C)OC)c2c3cc(ccc31)-c1csc(n1)C[C@H](NC(=O)[C@H]1[C@H](C)[C@@H]1C)C(=O)N1CCC[C@H](N1)C(=O)OCC(C)(C)C2` (atropisomer, axis not shown; (Sa)) [Compound Z547, (1r,2R,3S)—N-((6^3S,4S,Z)—(Sa)-1′-(5-(3-(1,4-oxazepan-4-yl)prop-1-yn-1-yl)-2-((S)-1-methoxyethyl)pyridin-3-yl)-1′-ethyl-10,10-dimethyl-5,7-dioxo-6^1,6^2,6^3,6^4,6^5,6^6-hexahydro-1^1H-8-oxa-2(4,2)-thiazola-1(5,3)-indola-6(1,3)-pyridazinacycloundecaphane-4-yl)-2,3-dimethylcyclopropane-1-carboxamide] yielded a pIC50 of 7.11.
Work on `CCn1c(-c2cc(C#CCN3CCCOCC3)cnc2[C@H](C)OC)c2c3cc(ccc31)-c1csc(n1)C[C@H](NC(=O)[C@H](C(C)C)N(C)S(C)(=O)=NC)C(=O)N1CCC[C@H](N1)C(=O)OCC(C)(C)C2` (mixture of isomers) [Compound Z912, (2S)—N-((6^3S,4S,Z)-1^2-(5-(3-(1,4-oxazepan-4-yl)prop-1-yn-1-yl)-2-((5)-1-methoxyethyl)pyridin-3-yl)-1^1-ethyl-10,10-dimethyl-5,7-dioxo-6^1,6^2,6^3,6^4,6^5,6^6-hexahydro-1^1H-8-oxa-2(4.2)-thiazola-1(5,3)-indola-6(1,3)-pyridazinacycloundecaphane-4-yl)-2-(N,N-dimethylmethylsulfonimidoyl)-3-methylbutanamide] yielded a pIC50 of 8.74.
`CCn1c(-c2cc(C3(C(=O)N4CCN(C)CC4)CC3)cnc2[C@H](C)OC)c2c3cc(ccc31)-c1csc(n1)C[C@H](NC(=O)[C@H]1[C@H](C)[C@@H]1C)C(=O)N1CCC[C@H](N1)C(=O)OCC1(CC1)C2` [Compound Z347, (1r,2R,3b)-N-((3′S,4′S,Z)-1′-ethyl-2′-(2-(1-methoxyethyl)-5-(1-(4-methylpiperazine-1-carbonyl)cyclopropyl)pyridin-3-yl)-5′,7′-dioxospiro[cyclopropane-1,10′-8-oxa-2(4,2)-thiazola-1(5,3)-indola-6(1,3)-pyridazinacycloundecaphan]-4-yl)-2,3-dimethylcyclopropane-1-carboxamide] gave a pIC50 of 6.82.
With `CCn1c(-c2cc(N3CCN(c4ccc(C)cc4)CC3)cnc2[C@H](C)OC)c2c3cc(ccc31)-c1csc(n1)C[C@H](NC(=O)[C@H]1[C@H](C)[C@@H]1C)C(=O)N1CCC[C@H](N1)C(=O)OCC1(CC1)C2` [Compound Z461, (1r,2R,3S)—N-((3′S,4′S,Z)-1′-ethyl-2′-(2-((S)-1-methoxyethyl)-5-(4-(p-tolyl)piperazin-1-yl)pyridin-3-yl)-5′,7′-dioxospiro[cyclopropane-1,10′-8-oxa-2(4,2)-thiazola-1(5,3)-indola-6(1,3)-pyridazinacycloundecaphan]-4′-yl)-2,3-dimethylcyclopropane-1-carboxamide] the pIC50 was 7.03.

Same assay, conditions: NCI-H441 cells, 3 h compound incubation, HTRF p-ERK T202/Y204; read-out: H441 p-ERK IC50
In the case of `CCn1c(-c2cc(C#CCN3CC4CCC(C3)N4C(C)=O)cnc2[C@H](C)OC)c2c3cc(ccc31)-c1csc(n1)C[C@H](Nc1nnc3cc(C)ccn13)C(=O)N1CCC[C@H](N1)C(=O)OCC(C)(C)C2` (atropisomer, axis not shown; (Ra)) [Compound Z1014, (6^3S,4S,Z)-1^2-(5-(3-(8-acetyl-3,8-diazabicyclo[3.2.1]octan-3-yl)prop-1-yn-1-yl)-(Ra)-2-((S)-1-methoxyethyl)pyridin-3-yl)-1^1-ethyl-10,10-dimethyl-4-((7-methyl-[1,2,4]triazolo[4,3-a]pyridin-3-yl)amino)-6^1,6^2,6^3,6^4,6^5,6^6-hexahydro-1^1H-8-oxa-2(4,2)-thiazola-1(5,3)-indola-6(1,3)-pyridazinacycloundecaphane-5,7-dione], the pIC50 was 8.47.
`CCn1c(-c2cc(C#CCN3CCCOCC3)cnc2[C@H](C)OC)c2c3cc(ccc31)-c1csc(n1)C[C@H](Nc1nnc3cc(Br)ccn13)C(=O)N1CCC[C@H](N1)C(=O)OCC(C)(C)C2` [Compound Z960, (6-S,4S,Z)—(R4)-1^2-(5-(3-(1,4-oxazepan-4-yl)prop-1-yn-1-yl)-2-((S)-1-methoxyethyl)pyridin-3-yl)-4-((7-bromo-[1,2,4]triazolo[4,3-a]pyridin-3-yl)amino)-1^1-ethyl-10,10-dimethyl-6^1,6^2,6^3,6^4,6^5,6^6-hexahydro-1^1H-8-oxa-2(4,2)-thiazola-1(5,3)-indola-6(1,3)-pyridazinacycloundecaphane-5,7-dione] gave a pIC50 of 8.26.
